Measurements: paper PMC8325370 (Proceedings of the National Academy of Sciences of the …, 2021)

Molecular target: T1, homomeric A2 channels (wt CNGA2) (Rattus norvegicus, UniProt Q00195)
T1 sequence (Q00195 1-664): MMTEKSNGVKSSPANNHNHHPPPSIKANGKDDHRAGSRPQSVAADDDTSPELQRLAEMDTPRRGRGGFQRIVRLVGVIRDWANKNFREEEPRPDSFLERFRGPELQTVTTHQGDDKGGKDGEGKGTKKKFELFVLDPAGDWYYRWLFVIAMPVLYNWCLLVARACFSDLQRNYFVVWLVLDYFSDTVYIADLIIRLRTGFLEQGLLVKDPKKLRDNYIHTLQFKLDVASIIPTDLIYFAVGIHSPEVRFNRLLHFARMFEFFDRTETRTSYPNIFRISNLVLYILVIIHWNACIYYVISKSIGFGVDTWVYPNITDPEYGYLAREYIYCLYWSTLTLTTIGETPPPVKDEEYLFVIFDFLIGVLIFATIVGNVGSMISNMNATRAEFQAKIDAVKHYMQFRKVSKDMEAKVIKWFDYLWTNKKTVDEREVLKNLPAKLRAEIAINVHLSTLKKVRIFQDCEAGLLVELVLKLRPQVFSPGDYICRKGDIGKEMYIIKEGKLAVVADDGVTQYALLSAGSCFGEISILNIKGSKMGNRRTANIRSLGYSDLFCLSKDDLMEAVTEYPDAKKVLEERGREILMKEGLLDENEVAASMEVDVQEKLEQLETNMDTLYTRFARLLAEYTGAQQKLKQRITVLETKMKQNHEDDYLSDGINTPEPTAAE
Assay: inside-out patch clamp, macroscopic current
Type: biochemical
Settings: agonist; +100 mV, 150 mM KCl, pH 7.4; Xenopus oocytes

**Q.** With `Nc1nc2c(ncn2[C@@H]2O[C@@H]3COP(=O)(O)O[C@H]3[C@H]2O)c(=O)[nH]1` [cGMP] as the compound, how does the EC50 read?
**A.** concentration–activation relationships to homomeric A2 channels
